Results from patent publication US5576311A, “Cyclodextrins as suspending agents for pharmaceutical suspensions” (Pharmos Corporation, priority 1994, dated 1996).
Converted amounts (≈) assume the structure as drawn. Where two headings read alike, the source gives them in different places.

Legend:
[1] = Stability of aqueous suspensions of LE with buffering systems or ionic tonicity agents; type: physicochemical; settings: accepted buffering systems or ionic tonicity agents
[2] = in vivo; cited from earlier work
[3] = HPLC measurement of concentration of LE in cyclodextrin suspensions after storage; type: physicochemical
[4] = in vivo; cited from earlier work; remark: listed apart in the source
[5] = Method D: solubilization of LE by cyclodextrins, HPLC before and after centrifugation; type: physicochemical
Method: To evaluate solubilization of drugs such as LE by cyclodextrins, LE is continuously mixed with cyclodextrins in various concentrations in water for one week at room temperature. Samples of the resulting suspensions and the soluble fractions of LE are analyzed by high pressure liquid chromatography ("HPLC") before and after centrifugation at 5000 G, respectively (hereinafter referred to as "Method D"). The concentrations of LE are calculated from the area under the curve of the LE peak using known techniques.

glucocorticoid receptors = settings: cited from earlier work
[6] = 25° C.; cited from earlier work

CCOC(=O)O[C@]1(C(=O)OCCl)CC[C@H]2[C@@H]3CCC4=CC(=O)C=C[C@]4(C)[C@H]3[C@@H](O)C[C@@]21C [LE, loteprednol etabonate]
obtaining stable aqueous suspensions [1]: cannot be obtained | risk of steroid induced cataracts and elevation of intra-ocular pressure [2]: reducing the risk of steroid induced cataracts and elevation of intra-ocular pressure | [LE] measurement (% of label) ([3]; 5 mg/ml label, BCD 1%, 23 C, 4.0 mos, 172800 min): 106.78 % of label | [LE] measurement (% of label) ([3]; 5 mg/ml label, HECD 1%, 23 C, 4.0 mos, 172800 min): 104.26 % of label | [LE] measurement (% of label) ([3]; 5 mg/ml label, HPCD 0.5%, 23 C, 5.0 mos, 216000 min): 101.12 % of label | [LE] measurement (% of label) ([3]; 5 mg/ml label, HPCD 1%, 23 C, 0.5 mos, 21600 min): 94.3 % of label | [LE] measurement (% of label) ([3]; 5 mg/ml label, HPCD 1%, 23 C, 5.0 mos, 216000 min): 115.45 % of label | [LE] measurement (% of label) ([3]; 5 mg/ml label, HPCD 1%, 37 C, 2.0 mos, 86400 min): 104.04 % of label | [LE] measurement (% of label) ([3]; 5 mg/ml label, HPCD 1%, 45 C, 2.0 mos, 86400 min): 96.84 % of label | [LE] measurement (% of label) ([3]; 10 mg/ml label, BCD 1%, 23 C, 4.0 mos, 172800 min): 105.7 % of label | [LE] measurement (% of label) ([3]; 10 mg/ml label, HECD 1%, 23 C, 4.0 mos, 172800 min): 135.88 % of label | [LE] measurement (% of label) ([3]; 10 mg/ml label, HPCD 0.5%, 23 C, 5.0 mos, 216000 min): 109.09 % of label | [LE] measurement (% of label) ([3]; 10 mg/ml label, HPCD 1%, 23 C, 0.5 mos, 21600 min): 88.18 % of label | [LE] measurement (% of label) ([3]; 10 mg/ml label, HPCD 1%, 23 C, 5.0 mos, 216000 min): 110.23 % of label | concentration of LE in the suspension (in words) ([3]; Table 4 storage): not significantly altered | efficacy relative to prednisolone acetate [4]: efficacy similar to its parent compound, namely, prednisolone acetate | ocular anti-inflammatory activity [4]: has ocular anti-inflammatory activity | solubility at 168 h ([5]; water with 0.5% hpcd, 0.5% HPCD, water, one week, room temperature, read-out: LE Solubilized): 7 µg/mL (≈ 15 µM) | solubility at 168 h ([5]; water with 1.0% bcd, 1.0% BCD, water, one week, room temperature, read-out: LE Solubilized): 10 µg/mL (≈ 21.4 µM) | solubility at 168 h ([5]; water with 1.0% hecd, 1.0% HECD, water, one week, room temperature, read-out: LE Solubilized): 10 µg/mL (≈ 21.4 µM) | solubility at 168 h ([5]; water with 1.0% hpcd, 1.0% HPCD, water, one week, room temperature, read-out: LE Solubilized): 5 µg/mL (≈ 10.7 µM) | solubility at 168 h ([5]; water with cyclodextrin, all cyclodextrins of Table 3, read-out: LE solubilized by cyclodextrins): ≤ 10 µg/mL

CCOC(=O)OC1(C(=O)O)CCC2C3CCC4=CC(=O)C=CC4(C)C3C(O)CC21C (stereo not drawn) [PJ-91]
binding to glucocorticoid receptors (glucocorticoid receptors): does not bind to glucocorticoid receptors

OC[C@H]1O[C@@H]2O[C@H]3[C@H](O)[C@@H](O)[C@@H](O[C@H]4[C@H](O)[C@@H](O)[C@@H](O[C@H]5[C@H](O)[C@@H](O)[C@@H](O[C@H]6[C@H](O)[C@@H](O)[C@@H](O[C@H]7[C@H](O)[C@@H](O)[C@@H](O[C@H]8[C@H](O)[C@@H](O)[C@@H](O[C@H]1[C@H](O)[C@H]2O)O[C@@H]8CO)O[C@@H]7CO)O[C@@H]6CO)O[C@@H]5CO)O[C@@H]4CO)O[C@@H]3CO [β-Cyclodextrin, β-cyclodextrin]
aqueous solubility [6]: about 1.8 % w/v
